Experimental findings from patent publication US20220106289A1, “NLRP3 INHIBITORS” (INFLAZOME LIMITED, priority 2018, published 2022) are described below.

For assay [1], the target named is T1, NLRP3 (Homo sapiens, UniProt Q96P20). The assay can be described thus: THP-1 cells pyroptosis assay (LPS + nigericin, resazurin read-out). In kind it is cell-based. More on the design: Seed THP-1 cells (25,000 cells/well) containing 1.0 μg/ml LPS; host or cells: THP-1 cells. As to conditions: NLRP3 inhibitory activity, 1 μg/ml LPS, 5 μM nigericin. As to the method: The cells were routinely passaged and grown to confluency (˜10^6 cells/ml). On the day of the experiment, THP-1 cells were harvested and resuspended into RPMI medium (without FBS). The cells were then counted and viability (>90%) checked by Trypan blue (Sigma #T8154). […] To this diluted cell solution was added LPS (Sigma #L4524) to give a 1 μg/ml Final Assay Concentration (FAC). 40 μl of the final preparation was aliquoted into each well of a 96-well plate. The plate thus prepared was used for compound screening. The following method step-by-step assay was followed for compound screening. • 1. […] Incubate for 3 hrs at 37° C., 5% CO2 • 4. Add 5 μl nigericin (Sigma #N7143) (FAC 5 μM) to all wells • 5. Incubate for 1 hr at 37° C., 5% CO2 • 6. At the end of the incubation period, spin plates at 300×g for 3 mins and remove supernatant • 7. Then add 50 μl of resazurin (Sigma #R7017) (FAC 100 μM resazurin in RPMI medium without FBS) and incubate plates for a further 1-2 hrs at 37° C. and 5% CO2 • 8.

The target of assay [2] is T1, NLRP3. In words: Human whole blood IL-1β release assay (LPS + nigericin, AlphaLisa). In kind it is cell-based. More on the design: Human whole blood in Li-heparin tubes was obtained from healthy donors; from tissue; host or cells: human whole blood from healthy donors. As to conditions: NLRP3 inhibitory activity, 1 μg/ml LPS, 10 μM nigericin, read-out: HWB IC50. On the procedure:
For systemic delivery, the ability to inhibit NLRP3 when the compounds are present within the bloodstream is of great importance. For this reason, the NLRP3 inhibitory activity of a number of compounds in human whole blood was investigated in accordance with the following protocol. Human whole blood in Li-heparin tubes was obtained from healthy donors from a volunteer donor panel. • 1. […] Incubate for 3 hrs at 37° C., 5% CO2 • 4. Add 10 μl nigericin (Sigma #N7143) (10 μM FAC) to all wells • 5. Incubate for 1 hr at 37° C., 5% CO2 • 6. At the end of the incubation period, spin plates at 300×g for 5 mins to pellet cells and remove 20 μl of supernatant and add to 96-well v-bottom plates for IL-1β analysis (note: these plates containing the supernatants can be stored at -80° C. to be analysed at a later date) • 7. IL-1β was measured according to the manufacturer protocol (Perkin Elmer-AlphaLisa IL-1 Kit A[…]-5000) • 8.

Molecules are shown by their SMILES. Where a name gives a salt, the structure may show the parent alone.

T1 sequence (Q96P20 whole entry): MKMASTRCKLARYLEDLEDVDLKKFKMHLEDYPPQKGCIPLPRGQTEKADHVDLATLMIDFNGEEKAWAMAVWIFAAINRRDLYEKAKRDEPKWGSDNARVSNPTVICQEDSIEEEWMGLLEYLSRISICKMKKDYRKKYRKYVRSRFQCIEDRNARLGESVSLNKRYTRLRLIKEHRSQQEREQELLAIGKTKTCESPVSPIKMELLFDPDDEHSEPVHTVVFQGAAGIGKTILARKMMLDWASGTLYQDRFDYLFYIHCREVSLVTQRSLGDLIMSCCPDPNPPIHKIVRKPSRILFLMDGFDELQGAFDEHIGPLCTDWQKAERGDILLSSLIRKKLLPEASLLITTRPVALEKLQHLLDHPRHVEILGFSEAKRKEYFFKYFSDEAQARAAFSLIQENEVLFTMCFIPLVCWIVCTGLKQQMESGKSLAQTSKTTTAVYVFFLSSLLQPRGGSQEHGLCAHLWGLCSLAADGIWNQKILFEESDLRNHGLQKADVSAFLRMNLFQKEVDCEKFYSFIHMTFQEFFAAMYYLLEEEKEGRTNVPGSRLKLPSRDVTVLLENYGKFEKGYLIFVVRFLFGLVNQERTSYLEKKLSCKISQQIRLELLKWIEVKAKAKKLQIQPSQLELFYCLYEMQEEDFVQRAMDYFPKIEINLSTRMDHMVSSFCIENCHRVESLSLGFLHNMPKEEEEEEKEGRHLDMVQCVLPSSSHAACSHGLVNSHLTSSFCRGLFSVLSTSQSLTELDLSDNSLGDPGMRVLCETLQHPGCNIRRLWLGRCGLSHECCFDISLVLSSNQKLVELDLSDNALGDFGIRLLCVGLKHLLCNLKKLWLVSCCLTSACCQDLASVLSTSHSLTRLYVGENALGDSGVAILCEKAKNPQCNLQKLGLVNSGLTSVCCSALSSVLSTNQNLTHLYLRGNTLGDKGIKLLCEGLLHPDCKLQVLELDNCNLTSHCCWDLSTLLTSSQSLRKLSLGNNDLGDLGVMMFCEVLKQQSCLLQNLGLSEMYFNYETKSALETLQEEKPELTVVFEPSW

As to `CC(C)c1cc(F)cc2c1C(C(=O)NS(=O)(=O)c1cc(C(C)(C)O)cs1)CC2(C)C` (single isomer, unassigned) [Example 8, 5-Fluoro-N-((4-(2-hydroxypropan-2-yl)thiophen-2-yl)sulfonyl)-7-isopropyl-3,3-dimethyl-2,3-dihydro-1H-indene-1-carboxamide, potassium salt (rotamer P1)], the IC50 on NLRP3 [1] fell in the range of 500 to 1000 nM; at NLRP3 [2], 1000 to 5000 nM.

Consider `CC(C)c1cc(F)cc(C(C)C)c1CC(=O)NS(=O)(=O)c1ccc(CN(C)C)cc1` [Example 33, N-((4-((Dimethylamino)methyl)phenyl)sulfonyl)-2-(4-fluoro-2,6-diisopropylphenyl)acetamide, 2,2,2-trifluoroacetate salt], for which the IC50 on NLRP3 [1] and at NLRP3 [2] was 1000 to 5000 nM in each case.

Turning to `CC(C)c1cc(C#N)cc(C(C)C)c1NC(=O)NS(=O)(=O)c1ccn(C(C)C)n1` [Example 72, N-((4-Cyano-2,6-diisopropylphenyl)carbamoyl)-1-isopropyl-1H-pyrazole-3-sulfonamide], the IC50 at NLRP3 [1] lay in the range of 1000 to 5000 nM; at NLRP3 [2] it was 5000 to 10000 nM.

For `O=C(Nc1c2c(cc3c1CCC3)CCC2)NS(=O)(=O)c1ccn(C2CCC2)n1` [Example 59, 1-Cyclobutyl-N-((1,2,3,5,6,7-hexahydro-s-indacen-4-yl)carbamoyl)-1H-pyrazole-3-sulfonamide], the values for the 50% inhibitory concentration (IC50) on NLRP3 [1] and on NLRP3 [2] were less than 250 nM and 1000 to 5000 nM, respectively.

Turning to `CC(C)c1cc(C#N)cc(C(C)C)c1NC(=O)NS(=O)(=O)c1cc(C(C)(C)O)n(C)n1` [Example 71, N-((4-Cyano-2,6-diisopropylphenyl)carbamoyl)-5-(2-hydroxypropan-2-yl)-1-methyl-1H-pyrazole-3-sulfonamide], the IC50 was in the range of 500 to 1000 nM at NLRP3 [1] and 1000 to 5000 nM at NLRP3 [2].

Take `CC(C)n1ccc(S(=O)(=O)NC(=O)Nc2c3c(cc4c2C(=O)CC4)CCC3)n1` [Example 15, 1-Isopropyl-N-((3-oxo-1,2,3,5,6,7-hexahydro-s-indacen-4-yl)carbamoyl)-1H-pyrazole-3-sulfonamide, potassium salt]: the values for the 50% inhibitory concentration (IC50) on NLRP3 [1] and on NLRP3 [2] were 1000 to 5000 nM and more than 10000 nM, respectively.

In the case of `O=C(Nc1c2c(cc3c1CCO3)CCC2)NS(=O)(=O)c1ccn(C2CC2)n1` [Example 67, 1-Cyclopropyl-N-((3,5,6,7-tetrahydro-2H-indeno[5,6-b]furan-4-yl)carbamoyl)-1H-pyrazole-3-sulfonamide], the results for the IC50 at NLRP3 [1] and at NLRP3 [2] were less than 250 nM and 1000 to 5000 nM, respectively.

For the compound `CN(C)CC1(n2ccc(S(=O)(=O)NC(=O)Nc3c4c(cc5c3CCC5)CCC4)n2)CCC1` [Example 60, 1-(1-((Dimethylamino)methyl)cyclobutyl)-N-((1,2,3,5,6,7-hexahydro-s-indacen-4-yl)carbamoyl)-1H-pyrazole-3-sulfonamide], the IC50 on NLRP3 [1] and on NLRP3 [2] was less than 250 nM each time.

Regarding `CC(C)n1cc(F)c(S(=O)(=O)NC(=O)Nc2c3c(cc4c2CCC4)CCC3)n1` [Example 55, 4-Fluoro-N-((1,2,3,5,6,7-hexahydro-s-indacen-4-yl)carbamoyl)-1-isopropyl-1H-pyrazole-3-sulfonamide], the IC50 at NLRP3 [1] is less than 250 nM; on NLRP3 [2] it was 500 to 1000 nM.

`C#CCCC1(CCn2ccc(S(=O)(=O)NC(=O)Nc3c4c(cc5c3CCC5)CCC4)n2)N=N1` [Example 16, 1-(2-(3-(But-3-yn-1-yl)-3H-diazirin-3-yl)ethyl)-N-((1,2,3,5,6,7-hexahydro-s-indacen-4-yl)carbamoyl)-1H-pyrazole-3-sulfonamide, potassium salt]: the concentration for half-maximal inhibition (IC50) on NLRP3 [1] is less than 250 nM; on NLRP3 [2], 5000 to 10000 nM.

`CC(C)(CN1CCC1)n1ccc(S(=O)(=O)NC(=O)Nc2c3c(cc4c2CCC4)CCC3)n1` [Example 56, 1-(1-(Azetidin-1-yl)-2-methylpropan-2-yl)-N-((1,2,3,5,6,7-hexahydro-s-indacen-4-yl)carbamoyl)-1H-pyrazole-3-sulfonamide]: the IC50 at NLRP3 [1] was less than 250 nM; on NLRP3 [2] it was 250 to 500 nM.

As to `CC(C)n1ncc(S(=O)(=O)NC(=O)Nc2c3c(cc4c2CCC4)CCC3)n1` [Example 48, N-((1,2,3,5,6,7-Hexahydro-s-indacen-4-yl)carbamoyl)-2-isopropyl-2H-1,2,3-triazole-4-sulfonamide], the IC50 was less than 250 nM at NLRP3 [1] and 1000 to 5000 nM on NLRP3 [2].

On to `CC(C)n1cc(S(=O)(=O)NC(=O)Nc2c3c(c(Br)c4c2CCC4)CCC3)cn1` [Example 36, N-((8-Bromo-1,2,3,5,6,7-hexahydro-s-indacen-4-yl)carbamoyl)-1-isopropyl-1H-pyrazole-4-sulfonamide], for which the IC50 is less than 250 nM on NLRP3 [1] and 5000 to 10000 nM on NLRP3 [2].

As for `CC(C)n1ccc(S(=N)(=O)NC(=O)Cc2c3c(cc4c2CCC4)CCC3)n1` (stereo not drawn) [Example 24, 2-(1,2,3,5,6,7-Hexahydro-s-indacen-4-yl)-N-(1-isopropyl-1H-pyrazole-3-sulfonimidoyl)acetamide], the IC50 is 1000 to 5000 nM on NLRP3 [1] and more than 10000 nM on NLRP3 [2].

In the case of `COC1(c2cc(S(=O)(=O)NC(=O)Nc3c4c(cc5c3CCC5)CCC4)nn2C)CCCC1` [Example 52, N-((1,2,3,5,6,7-hexahydro-s-indacen-4-yl)carbamoyl)-5-(1-methoxycyclopentyl)-1-methyl-1H-pyrazole-3-sulfonamide], the IC50 on NLRP3 [1] is less than 250 nM; on NLRP3 [2], 500 to 1000 nM.

For `CC(C)c1cc(Cl)c2c(c1NC(=O)NS(=O)(=O)c1ccn(C(C)C)n1)CCC2` [Example 34, N-((7-Chloro-5-isopropyl-2,3-dihydro-1H-inden-4-yl)carbamoyl)-1-isopropyl-1H-pyrazole-3-sulfonamide], the IC50 lay in the range of 250 to 500 nM on NLRP3 [1] and 5000 to 10000 nM at NLRP3 [2].

Take `CC(C)n1nc(S(=O)(=O)NC(=O)Nc2c3c(cc4c2CCC4)CCC3)cc1C(C)(C)O` [Example 49, N-((1,2,3,5,6,7-Hexahydro-s-indacen-4-yl)carbamoyl)-5-(2-hydroxypropan-2-yl)-1-isopropyl-1H-pyrazole-3-sulfonamide]: the IC50 at NLRP3 [1] was less than 250 nM; at NLRP3 [2], 500 to 1000 nM.

With `CC(C)c1cc(F)cc(C(C)C)c1NC(=O)NS(=O)(=O)c1ccn(C(C)C)n1` [Example 77, N-((4-Fluoro-2,6-diisopropylphenyl)carbamoyl)-1-isopropyl-1H-pyrazole-3-sulfonamide, sodium salt], the results for the IC50 on NLRP3 [1] and at NLRP3 [2] were 1000 to 5000 nM and 5000 to 10000 nM, respectively.

With `O=C(Nc1c2c(cc3c1CCC3)CCC2)NS(=O)(=O)c1cc[nH]n1` [Example 13, N-((1,2,3,5,6,7-Hexahydro-s-indacen-4-yl)carbamoyl)-1H-pyrazole-3-sulfonamide, potassium salt], the values for the IC50 on NLRP3 [1] and at NLRP3 [2] were 1000 to 5000 nM and more than 10000 nM, respectively.

For `CC(C)n1ccc(S(=O)(=O)NC(=O)Nc2c3c(c(Cl)c4c2CCC4)CCC3)n1` [Example 35, N-((8-Chloro-1,2,3,5,6,7-hexahydro-s-indacen-4-yl)carbamoyl)-1-isopropyl-1H-pyrazole-3-sulfonamide], the IC50 at NLRP3 [1] is less than 250 nM; on NLRP3 [2], 5000 to 10000 nM.

Turning to `CCn1cc(S(=O)(=O)NC(=O)Nc2c3c(cc4c2CCC4)CCC3)nn1` [Example 19, 1-Ethyl-N-((1,2,3,5,6,7-hexahydro-s-indacen-4-yl)carbamoyl)-1H-1,2,3-triazole-4-sulfonamide, potassium salt], the figures for the IC50 at NLRP3 [1] and at NLRP3 [2] were 250 to 500 nM and 500 to 1000 nM, respectively.

As to `CC(C)n1nncc1S(=O)(=O)NC(=O)Nc1c2c(cc3c1CCC3)CCC2` [Example 47, N-((1,2,3,5,6,7-Hexahydro-s-indacen-4-yl)carbamoyl)-1-isopropyl-1H-1,2,3-triazole-5-sulfonamide], the IC50 is less than 250 nM on NLRP3 [1] and 1000 to 5000 nM on NLRP3 [2].

For `CN(C)Cc1ccc(S(=O)(=O)NC(=O)Nc2c3c(cc4c2CCC4)CCC3)cc1` [Example 66, 4-((Dimethylamino)methyl)-N-((1,2,3,5,6,7-hexahydro-s-indacen-4-yl)carbamoyl)benzenesulfonamide, sodium salt], the IC50 at NLRP3 [1] was less than 250 nM; on NLRP3 [2], 250 to 500 nM.

On to `COC(C)(C)c1cc(S(=O)(=O)NC(=O)Nc2c(C(C)C)cc(F)cc2C(C)C)nn1C` [Example 82, N-((4-Fluoro-2,6-diisopropylphenyl)carbamoyl)-5-(2-methoxypropan-2-yl)-1-methyl-1H-pyrazole-3-sulfonamide], for which the IC50 on NLRP3 [1] lay within 250 to 500 nM; on NLRP3 [2] it was 500 to 1000 nM.
